What was measured:
ATX in human whole blood = ATX in human whole blood (Homo sapiens (Human), UniProt Q13822); assay: Assay B: Whole-Blood ATX assay; format: biochemical; conditions: 1 h at 37° C., formation of 18:2 LPA
Method: 45 μL human whole-blood was supplemented with 5 μL of the test compound, dissolved in phosphate-buffered saline (concentration range 0.12 nM-100 μM). This mixture was incubated for 1 h at 37° C. and stopped by addition of 100 μL 40 mM disodium hydrogen phosphate buffer containing 30 mM citric acid (pH 4) and 1 μM 17:0 LPA (internal standard). LPA was extracted by addition of 500 μL 1-butanol, followed by 10-min centrifugation at 4000 rpm, 4° C. From the resultant organic supernatant, a 200 μL aliquot was transferred into a 96-deep-well plate and transferred to the RapidFire-based MS/MS measurement.
The RapidFire autosampler was coupled to a binary pump (Agilent 1290) and a Triple Quad 6500 (ABSciex, Toronto, Canada). This system was equipped with a 10-μL loop, 5-μL Waters Atlantis HILIC cartridge (Waters, Elstree, UK), 90% acetonitrile containing 10 mM ammonium acetate as eluent A and 40% acetonitrile containing 10 mM ammoniumacetate as eluent B. For details see (Bretschneider et al., SLAS Discovery, 2017, 22, 425-432). The MS was operated in negative mode with a source temperature of 550° C., curtain gas=35, gas 1=65, and gas 2=80. The following transitions and MS parameters (DP: declustering potential and CE: collision energy) for the respective LPAs were determined: 18:2 LPA at 433.2/152.8, DP=−150, CE=−27 and 17:0 LPA at 423.5/152.8, DP=−100.
The formation of 18:2 LPA was monitored and evaluated as ratio to 17:0 LPA.

[1] = test system: plasma LPA (ATX inhibition); assay: Assay C: In vivo plasma LPA reduction after oral dosing; conditions: rats, 5 mg/kg, 8 hours post application, sum of LPA vs baseline
Method: The test substance was solubilized in 0.5% natrosol supplemented with 0.015% Tween 80 for oral application to rats at a dose of 5 mg/kg. Blood samples were collected before compound administration and 8 hours post application on ice using EDTA as coagulation agent. Subsequently, plasma was prepared by centrifugation and stored until analysis at −20° C.
LPAs from plasma samples were extracted by using the procedure described by Scherer et al. (Clinical chemistry 2009, 55, 1218-22). 35 μL of heparinized plasma was mixed with 200 μL 40 mM disodium hydrogen phosphate buffer containing 30 mM citric acid (pH 4) and 1 μM 17:0 LPA (internal standard). Subsequently, 500 μL butanol was added and shaken vigorously for 10 min. Samples were centrifuged afterwards at 4000 rpm, 4° C., for 10 min. 500 μL of the organic upper phase was transferred to a fresh 96-deep-well plate and evaporated with a gentle nitrogen flow of 15 psi for 45 min. The resultant residual was dissolved in 100 μL ethanol prior to LC-MS analysis.
LC-MS Method for the Analytic of In Vivo Samples
A Triple Quad 6500 (ABSciex, Toronto, Canada) was equipped with an Agilent 1290 LC system (Agilent, Santa Clara, CA) a CTC autosampler and an Atlantis 50×2.1-mm, 3-μm HILIC LC column (Waters, Elstree, UK). Eluent A contained 0.2% formic acid and 50 mM ammonium formate in water, whereas eluent B consisted of 0.2% formic acid in acetonitrile. […] At 1.8 min, solvent B was set back to 95% and stayed constant for 0.7 min for re-equilibration of the column. The following LPA species were monitored (DP: declustering potential and CE: collision energy): 16:0 LPA at 409.2/152.8, DP=−150, CE=−28; 18:0 LPA at 437.3/152.8, DP=−60, CE=−28; 18:1 LPA at 435.2/152.8, DP=−40, CE=−28; 18:2 LPA at 433.2/152.8, DP=−150, CE=−28; 20:4 LPA at 457.2/152.8, DP=−100, CE=−29 and 17:0 LPA at 423.5/152.8, DP=−100, CE=−36. LPA depletion in percent was calculated based on the baseline LPA levels before test compound application. The sum of LPA refers to the species 16:0; 18:0; 18:1; 18:2 and 20:4

Human ATX = Human ATX (Homo sapiens (Human), UniProt Q13822); assay: Assay A: Biochemical ATX Assay; conditions: 5 nM recombinant ATX, 18:1 LPC substrate, 2 h at room temperature, formation of 18:1 LPA
Method: 5 nM recombinant ATX (Cayman Chemicals) was supplemented to 50 mM Tris buffer (pH 8.0) containing 3 mM KCl, 1 mM CaCl2), 1 mM MgCl2 0.14 mM NaCl, and 0.1% bovine serum albumin. Test compounds were dissolved in DMSO and tested in the range of 0.1 nM to 10 μM. The enzymatic reaction (22.5 μL) was started by addition of 2.5 μL 10 μM 18:1 LPC (Avanti Lipids, Alabaster, AL, USA). After 2-h incubation at room temperature, the reaction was stopped by addition of 20 μL water containing 500 nM 20:4 LPA as internal standard and 100 μL 1-butanol for extracting LPA. Subsequently, the plates were centrifuged at 4000 rpm, 4° C., for 2 min. The resultant upper butanol phase was directly used for injection at a RapidFire system (Agilent).
The RapidFire autosampler was coupled to a binary pump (Agilent 1290) and a Triple Quad 6500 (ABSciex, Toronto, Canada). […] 1 The MS was operated in negative mode with a source temperature of 550° C., curtain gas=35, gas 1=65, and gas 2=80. The following transitions and MS parameters (DP: declustering potential and CE: collision energy) for the respective LPAs were determined: 18:1 LPA at 435.2/152.8, DP=−40, CE=−28 and 20:4 LPA at 457.2/152.8, DP=−100, CE=−27).
The formation of 18:1 LPA was monitored and evaluated as ratio to 20:4 LPA.

LPA levels = conditions: as disclosed in literature; cited from earlier work

Row | SMILES | IC50 (ATX in human whole blood) [nM] | IC50 (Human ATX) [nM] | LPA reduction at 8 h [1] [%] | reduction of LPA levels in vivo (LPA levels)
1 | CC(=O)N1CCN(c2ccc(C3(Nc4ccc(OCc5ccc(C(F)(F)F)nc5)nn4)CC3)cn2)CC1 [Example 1.11] | 6.9 | 4.4 | 96.3 | –
2 | O=C(NC[C@@H]1[C@H]2CN(C(=O)OCc3cc(C(F)(F)F)cc(C(F)(F)F)c3)C[C@@H]12)c1ccc2[nH]nnc2c1 | – | – | – | significantly reduces LPA levels in vivo
3 | CC(=O)N1CCN(c2ccc(C3(Nc4ccc(OCc5ccc(C(F)(F)F)nc5)nn4)CC3)c(F)c2)CC1 [Example 1.12] | 7.7 | 4.8 | – | –
4 | CCc1nc2c(C)cc(N3CCN(CC(=O)N4CC(O)C4)CC3)cn2c1N(C)c1nc(-c2ccc(F)cc2)c(C#N)s1 [Example 2 in WO2014/139882, reference compound] | – | – | 58.1 | –
5 | CC(=O)N(C)C1CCN(c2ccc(C3(Nc4ccc(OCc5ccc(C(F)F)nc5)nn4)CC3)cc2)C1 (centres unmarked) [Example 1.7] | 7 | 6.7 | – | –
6 | CC(=O)N1CCN(c2ccc([C@@H](CO)Nc3ccc(OCc4ccc(C(F)(F)F)nc4)nn3)cc2)CC1 [Example 1.9] | 5 | 5.3 | – | –
7 | CC(=O)N1CCN(c2ccc(C3(Nc4ccc(OCc5ccc(C(F)(F)F)nc5)nn4)CC3)cc2C)CC1 [Example 1.13] | 7.1 | 3.4 | – | –
8 | CC(=O)N1CCN(c2ccc([C@H](C)Nc3ccc(OCc4ccc(C(F)(F)F)nc4)nn3)cc2)CC1 [Example 1.6] | 7.8 | 2.6 | – | –

Now from value to compound, other results behind:

Row | IC50 (ATX in human whole blood) [nM] | IC50 (Human ATX) [nM] | SMILES | LPA reduction at 8 h [1] [%] | reduction of LPA levels in vivo (LPA levels)
9 | 3.7 | 2.4 | CC(=O)N1CCN(c2ccc(C3(Nc4ccc(OCc5ccc(C(F)(F)F)nc5)nn4)CC3)cc2F)CC1 [Example 1.10] | – | –
10 | 2 | 2.2 | CC(=O)N1CCN(c2ccc(C(C)Nc3ccc(OCc4ccc(C(F)(F)F)nc4)nn3)cc2)CC1 (centres unmarked) [Example 1.3] | – | –
11 | 3.5 | 2.5 | CC(=O)N1CCN(c2ccc(C3(Nc4ccc(OCc5ccc(C(F)(F)F)nc5)nn4)CC3)cc2)CC1 [Example 1.1, 1-[4-(4-{1-[(6-{[6-(trifluoromethyl)pyridin-3-yl]methoxy}pyridazin-3-yl)amino]cyclopropyl}phenyl)piperazin-1-yl]ethan-1-one] | 97.0 | –
12 | 4.3 | 4.2 | CC(=O)N1CCN(c2ccc(C3(Nc4ccc(OCc5ccc(C(F)F)nc5)nn4)CC3)cc2)CC1 [Example 1.5] | – | –
13 | 4.3 | 5.8 | CC(=O)N(C)C1CCN(c2ccc(C3(Nc4ccc(OCc5ccc(C(F)F)nc5)nn4)CC3)cc2)CC1 [Example 1.4] | 98.0 | –
14 | 1.3 | 4.2 | CC(=O)N1CCN(c2ccc([C@@H](CO)Nc3ccc(OCc4ccc(C(F)F)nc4)nn3)cc2)CC1 [Example 1.8] | – | –
15 | 1.8 | 3.4 | CC(=O)N1CCN(c2ccc([C@@H](C)Nc3ccc(OCc4ccc(C(F)(F)F)nc4)nn3)cc2)CC1 [Example 1.2] | 95.9 | –

— patent publication US12391667B2, “N-methyl, n-(6-(methoxy)pyridazin-3-yl) amine derivatives as Autotaxin (ATX) modulators for the treatment of inflammatory airway or fibrotic diseases” (Boehringer Ingelheim International GmbH, priority 2019, dated 2025)
